Laboratory results from ChEMBL document CHEMBL1201862, “PubChem BioAssay data set” (2004).
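Where inhibition never reached the appropriate level, the endpoint shown equals the highest concentration tested. Otherwise, values were interpolated linearly from a five-concentration, 48-hour dose response in 96-well plates. Abbreviation: GI50, concentration required for 50% inhibition of growth.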 Active and inactive are the calls of the source. Cut-off read from the data, not from the text of the source: active = GI50 up to about 1.1 µM and inactive = higher.

Key:
Experiment in all cases: DTP human tumour cell line panel, 48 h
[1] = system: 786-0
[2] = system: A498
[3] = system: ACHN
[4] = system: BT-549
[5] = system: COLO 205
[6] = system: HCC 2998
[7] = system: HCT-116
[8] = system: HOP-62
[9] = system: HOP-92
[10] = system: Hs-578T
[11] = system: MOLT-4
[12] = system: NCI-H23
[13] = system: OVCAR-3
[14] = system: OVCAR-4
[15] = system: OVCAR-8
[16] = system: SF-295
[17] = system: SF-539
[18] = system: SK-MEL-5
[19] = system: SN12C
[20] = system: SNB-19

Compound	GI50 [1]	GI50 [2]	GI50 [3]	GI50 [4]	GI50 [5]	GI50 [6]	GI50 [7]	GI50 [8]	GI50 [9]	GI50 [10]	GI50 [11]	GI50 [12]	GI50 [13]	GI50 [14]	GI50 [15]	GI50 [16]	GI50 [17]	GI50 [18]	GI50 [19]	GI50 [20]
Cc1ccc(S(=O)(=O)c2ccsc2NC(=O)c2ccccc2)cc1	23 µM (inactive)	45.9 µM (inactive)	> 42.6 µM (inactive)	> 100 µM (inactive)	> 100 µM (inactive)	> 100 µM (inactive)	> 100 µM (inactive)	17 µM (inactive)	26.7 µM (inactive)	17.3 µM (inactive)	> 100 µM (inactive)	> 31.6 µM (inactive)	> 100 µM (inactive)	20.9 µM (inactive)	28.6 µM (inactive)	22.1 µM (inactive)	15.4 µM (inactive)	12.7 µM (inactive)	> 100 µM (inactive)	> 64.3 µM (inactive)
CC(=O)OC(=C(C#N)C#N)c1nccnc1C(=O)O	> 100 µM (inactive)	> 100 µM (inactive)	> 100 µM (inactive)	> 100 µM (inactive)	> 100 µM (inactive)	> 100 µM (inactive)	> 100 µM (inactive)		> 100 µM (inactive)	> 100 µM (inactive)	> 100 µM (inactive)	> 100 µM (inactive)	> 100 µM (inactive)	> 100 µM (inactive)	> 100 µM (inactive)	> 100 µM (inactive)	> 100 µM (inactive)	> 100 µM (inactive)	> 100 µM (inactive)	> 100 µM (inactive)
CN(CCCNC(=O)c1nn(-c2ccccc2)c2c1Cc1ccccc1-2)CCCNC(=O)c1nn(-c2ccccc2)c2c1Cc1ccccc1-2	1.65 µM (inactive)	1.69 µM (inactive)	1.73 µM (inactive)	1.56 µM (inactive)	1.45 µM (inactive)	1.42 µM (inactive)	1.65 µM (inactive)	1.58 µM (inactive)	1.57 µM (inactive)	1.25 µM (inactive)	1.12 µM (active)	1.57 µM (inactive)	1.71 µM (inactive)	0.929 µM (active)	1.73 µM (inactive)	1.84 µM (inactive)	1.59 µM (inactive)	1.57 µM (inactive)	1.76 µM (inactive)	1.61 µM (inactive)
Cn1c2ccc([N+](=O)[O-])cc2c(=O)c2c(O)cc(O)cc21	19 µM (inactive)	> 100 µM (inactive)	33.1 µM (inactive)	28.4 µM (inactive)	> 100 µM (inactive)	> 100 µM (inactive)			32.7 µM (inactive)	27.5 µM (inactive)	45.2 µM (inactive)		52.4 µM (inactive)	31.2 µM (inactive)	13.2 µM (inactive)	15.3 µM (inactive)	24.3 µM (inactive)	60 µM (inactive)	31.4 µM (inactive)	18.1 µM (inactive)
CCOC(=O)C(C)c1nc2cc(C(F)(F)F)ccc2[nH]c1=O (stereo not drawn)	> 100 µM (inactive)	64.3 µM (inactive)	> 100 µM (inactive)	> 100 µM (inactive)	> 100 µM (inactive)	> 100 µM (inactive)	88.9 µM (inactive)	> 100 µM (inactive)	71.1 µM (inactive)	> 100 µM (inactive)	85.5 µM (inactive)	81.7 µM (inactive)	82 µM (inactive)	81.5 µM (inactive)	> 100 µM (inactive)	49.2 µM (inactive)	> 100 µM (inactive)	42.2 µM (inactive)	> 100 µM (inactive)	> 100 µM (inactive)
CCOc1ccc(/N=N/C2C(=O)N(C(=O)CC(=O)Nc3ccc(Cl)cc3)N=C2C)cc1 (stereo not drawn)	> 100 µM (inactive)	> 100 µM (inactive)	> 100 µM (inactive)	> 100 µM (inactive)	> 100 µM (inactive)	> 100 µM (inactive)	> 100 µM (inactive)	> 100 µM (inactive)	> 100 µM (inactive)	> 100 µM (inactive)		> 100 µM (inactive)	> 100 µM (inactive)	> 100 µM (inactive)	64.1 µM (inactive)	> 100 µM (inactive)	> 100 µM (inactive)	> 100 µM (inactive)	> 100 µM (inactive)	
CCN1c2cc(Br)cc3[nH]c(=O)n(c23)CCC1C (stereo not drawn)	14.3 µM (inactive)	12.3 µM (inactive)	19.5 µM (inactive)	6.85 µM (inactive)	14.9 µM (inactive)	15.6 µM (inactive)	14.8 µM (inactive)	18 µM (inactive)	1.49 µM (inactive)	3.46 µM (inactive)	4.32 µM (inactive)	21.7 µM (inactive)	14.6 µM (inactive)	20 µM (inactive)	14.4 µM (inactive)	16 µM (inactive)	34.2 µM (inactive)	15.2 µM (inactive)	16.7 µM (inactive)	23.2 µM (inactive)
CC(C)(C)c1cc(OCc2nnc(S)n2N)c(Cl)cc1OCc1nnc(S)n1N	59.6 µM (inactive)	30.6 µM (inactive)	63.7 µM (inactive)	37.5 µM (inactive)	42.2 µM (inactive)	31.1 µM (inactive)	33 µM (inactive)	59 µM (inactive)	28.1 µM (inactive)	43 µM (inactive)	22.6 µM (inactive)	42.8 µM (inactive)	32.4 µM (inactive)	43.3 µM (inactive)	50.5 µM (inactive)	43.1 µM (inactive)	48.3 µM (inactive)	26.5 µM (inactive)	28.4 µM (inactive)	42.1 µM (inactive)
O=C1OC2c3ccccc3C(=O)C2(c2ccccc2)N1c1ccccc1 (stereo not drawn)	> 200 µM (inactive)	> 200 µM (inactive)	> 200 µM (inactive)	> 200 µM (inactive)	86.1 µM (inactive)	> 200 µM (inactive)	> 200 µM (inactive)	> 200 µM (inactive)	> 200 µM (inactive)	> 200 µM (inactive)	186 µM (inactive)	> 200 µM (inactive)	> 200 µM (inactive)	> 200 µM (inactive)	> 200 µM (inactive)	> 200 µM (inactive)	> 200 µM (inactive)	> 200 µM (inactive)	> 200 µM (inactive)	> 200 µM (inactive)
C[C@H]1CN[C@@H]2[C@@H](C)[C@H]3[C@@H](C[C@H]4[C@@H]5CC[C@H]6C[C@@H](N)CC[C@]6(C)[C@H]5CC[C@]34C)O[C@@]2(O)C1	1.69 µM (inactive)	0.142 µM (active)	2.65 µM (inactive)	2.19 µM (inactive)	1.51 µM (inactive)	1.8 µM (inactive)	1.29 µM (inactive)		2.47 µM (inactive)	1.91 µM (inactive)	1.69 µM (inactive)	12.9 µM (inactive)	2.03 µM (inactive)	3.75 µM (inactive)	2.04 µM (inactive)	2.92 µM (inactive)	1.27 µM (inactive)	3.04 µM (inactive)	1.42 µM (inactive)	2.07 µM (inactive)
COc1cc(C(c2ccccc2)N2C(=O)CC[C@H]2C(=O)O)cc(OC)c1OC (stereo partly drawn)	> 100 µM (inactive)	> 100 µM (inactive)	> 100 µM (inactive)	> 100 µM (inactive)	> 100 µM (inactive)	> 100 µM (inactive)	> 100 µM (inactive)	> 100 µM (inactive)	> 100 µM (inactive)	> 100 µM (inactive)	> 100 µM (inactive)	> 100 µM (inactive)	> 100 µM (inactive)	> 100 µM (inactive)	> 100 µM (inactive)	> 100 µM (inactive)	> 100 µM (inactive)	> 100 µM (inactive)	> 100 µM (inactive)	> 100 µM (inactive)
COC1C(OC(=O)/C=C/C=C/C=C/C=C/C(=O)O)CCC2(CO2)C1C1(C)OC1CC=C(C)C (stereo not drawn)	20.5 µM (inactive)	> 100 µM (inactive)	18.5 µM (inactive)	21.6 µM (inactive)	12.4 µM (inactive)	26 µM (inactive)	12.6 µM (inactive)	62.1 µM (inactive)	27.4 µM (inactive)	40.2 µM (inactive)	25.4 µM (inactive)	25 µM (inactive)	29.2 µM (inactive)	21.1 µM (inactive)	29.3 µM (inactive)	17.3 µM (inactive)	42.3 µM (inactive)	18.5 µM (inactive)	28.1 µM (inactive)	> 56.1 µM (inactive)
O[C@@]1(c2cccs2)c2cccc(Cl)c2[C@](O)(c2cccs2)c2cccc(Cl)c21	16.4 µM (inactive)	12.6 µM (inactive)	17 µM (inactive)	19.2 µM (inactive)	19.5 µM (inactive)	17.6 µM (inactive)	13.2 µM (inactive)	26.1 µM (inactive)	67.9 µM (inactive)	12.8 µM (inactive)	15.9 µM (inactive)	18.1 µM (inactive)	16.3 µM (inactive)	18.2 µM (inactive)	55.7 µM (inactive)	11.1 µM (inactive)	29.2 µM (inactive)	17.3 µM (inactive)	17.9 µM (inactive)	26.7 µM (inactive)
CC(=O)OC1(C)CC(C)C(=O)C(C(O)CC2CC(=O)NC(=O)C2)C1 (stereo not drawn)	0.0204 µM (active)	0.0201 µM (active)	0.00743 µM (active)	0.0334 µM (active)	0.0108 µM (active)	0.01 µM (active)	0.00743 µM (active)	0.0193 µM (active)	0.00172 µM (active)	0.0223 µM (active)	0.00444 µM (active)	0.00807 µM (active)	0.0236 µM (active)	0.0184 µM (active)	0.0122 µM (active)	0.0127 µM (active)	0.0145 µM (active)	0.00787 µM (active)	0.00822 µM (active)	0.0141 µM (active)
